Data taken from patent US20230346827A1 (priority 2020, published 2023).

Experiments:
ALS patients = assay: Serum lactate in ALS patients, dextran sulfate 2 mg/kg s.c. weekly for ten weeks (Example 14); type: in vivo, human; set-up: serum lactate levels: unit not given here
Description: Dextran sulfate (ILB®, Tikomed AB, Viken, Sweden, WO 2016/076780) was administered at 2 mg/kg by […] subcutaneous injection once a week for ten weeks to 8 human patients suffering from ALS.
Peripheral venous blood samples were collected from patients before (week 0) and after dextran sulfate administration (week 5 and week 10) after at least 15 minutes of complete rest, using the standard tourniquet procedure, from the antecubital vein into a single VACUETTE® polypropylene tube containing serum separator and clot activator (Greiner-Bio One GmbH, Kremsmunster, Austria). After 30 mins at room temperature (20-25° C.), blood withdrawals were centrifuged at 1,890 × g for 10 min to get serum aliquots.
A serum aliquot of 500 µl was supplemented with 1 ml of HPLC-grade acetonitrile, vortexed for 60 secs, centrifuged at the maximum speed in a top-bench centrifuge to precipitate proteins. Supernatants were washed with large volumes of HPLC-grade chloroform to remove organic solvent, centrifuged and the upper aqueous phases were transferred to different tubes, clearly labeled to identify the sample and stored at -80° C. until analyzed to determine different water-soluble compounds.

[1] = tested on: Human trabecular meshwork cells; assay: Fibronectin immunofluorescence in TGFβ2-stimulated trabecular meshwork cells; type: cell-based; conditions: TGFβ2 1.0 ng/ml + LMW-DS 4.0 µM, 72 hours
Description: Human trabecular meshwork cells (TMC-6590; ScienCell Research Laboratories, Carlsbad, CA) were cultured in TMC (6591; ScienCell Research Laboratories) complete medium and maintained at 37° C. in 5% CO2 until reaching 80-90% confluency. Cells were plated at densities of 5000-10000 cells per well in Greiner-Bio Cell 96 Well black Cell Culture Microplates (655090, Sigma) and left to adhere overnight. The following day cells were treated with TGFβ2 (1.0 ng/ml; Preprotech) and/or LMW-DS (4.0 µM; Tikomed AB) under serum free conditions for 72 hrs.
After 72 hrs treatments, cells were fixed using 4% PFA in PBS (28908, Thermo Fisher Scientific) for 10 minutes, washed with PBS and then washed with PBS containing saponin-based permeabilization buffer (00-8333-56, Thermo Fisher Scientific). Cells were then immunostained with anti-human Fibronectin Alexa Fluor® 488 (53-9869-82, Thermo Fisher Scientific) and nuclear stain Hoeschst 33342 (H21492, Thermo Fisher Scientific) in permeabilizing buffer in the dark for 1 hr at room temperature. […] Images were analyzed using the Yokogawa image analysis software.

Substance: sodium salt of dextran sulfate [LMW-DS]
- increase of serum lactate levels vs Week 0 (ALS patients; after 5 weeks of treatment): 29.8%
- serum lactate levels (ALS patients; after 5 weeks of treatment): 2.31±1.02
- increase of serum lactate levels vs Week 0 (ALS patients; after 10 weeks of treatment): 70%
- serum lactate levels (ALS patients; after 10 weeks of treatment): 3.02±1.59
- fibronectin levels (quantification of fibronectin staining) [1]: 1136 ± 155
